Measurements as given in publication PMC9230201, “Sustained Consumption of a Decaffeinated Green Coffee Nutraceutical Has Limited Effects on Phenolic Metabolism and Bioavailability in Overweight/Obese Subjects” (Nutrients, 2022).

Key:
[1] = Fecal excretion of phenolic metabolites after intake of the GCPE nutraceutical; settings: feces
Description: Participants attended the Human Nutrition Unit (HNU) at the Institute of Food Science, Technology and Nutrition (ICTAN-CSIC) on two consecutive days at the beginning of the intervention (week 0) and also on two consecutive days at the end of the study, after consuming daily two doses of the GCPE nutraceutical, providing 600 mg/d phenols, during two months (week 8). […] A licensed health care professional placed an intravenous catheter in the subjects′ nondominant arm and collected a fasting blood sample (baseline, 0 h). Then, subjects drank the soluble GCPE nutraceutical dissolved in 200 mL of water. […] On the sampling days, volunteers remained at the HNU, where a (poly)phenol-free diet was provided. Half an hour after consuming the nutraceutical, volunteers ate a breakfast consisting of ham, cheese, white bread, and a yogurt. Lunch (paella, bread, and yogurt) and an afternoon snack (muffin and yogurt) were eaten 5 and 9 h, respectively, after consuming the nutraceutical. Water and isotonic beverages were freely available. […] The same protocol was followed during visits at the end of the 8-week intervention. On each occasion, two days before each visit to the HNU, subjects consumed a low (poly)phenol diet free of foods containing hydroxycinnamates such as coffee, herbal teas, red wine, artichokes, whole grain cereals, vegetables, fruits and fruit juices, and dried fruits. Only banana, watermelon, cantaloupes, and potatoes were allowed.
Blood samples were immediately centrifuged (10 min, 3000 rpm, 4 °C) to obtain plasma. […] All biological samples were stored at −80 °C until analysis.
To extract plasma metabolites, 10 µL of 50% (v/v) aqueous formic acid, and 900 µL cold acetonitrile containing 50 µL of 10% (w/v) ascorbic acid were added to 400 µL defrosted plasma. Samples were vortexed and centrifuged (14,000 rpm, 10 min, 4 °C), repeating the extraction and combining the two supernatants, which were reduced to dryness under nitrogen [13]. Dried samples were resuspended in 150 µL of 0.1% aqueous formic acid (containing 10% acetonitrile acidified with 0.1% formic acid), centrifuged (15 min, 14,000 rpm, 4 °C), and the supernatant collected. Urine samples were diluted 1:1 with Milli-Q water and centrifuged (14,000 rpm, 20 min, 4 °C) prior to analysis. Phosphate-buffered saline (3 mL) was added to a representative 300 mg sample of thawed feces, homogenized in an ultrasound bath during 10 min, centrifuged (14,000 rpm, 20 min, 4 °C), and the supernatants collected.
Mobile phase A was 0.1% formic acid in Milli-Q water, and mobile phase B was acetonitrile containing 0.1% formic acid at a 0.3 mL/min flow rate. […] Metabolites were identified based on their retention time using authentic standards when possible. […] Urine concentration of excreted metabolites was normalized to the total volume excreted in each studied interval.
Plasma (30 µL), urine (5 µL) and fecal extracts (5 µL) were filtered through 0.45 µm
cellulose-acetate membrane filters and injected into an Agilent 1200 series LC system
ESI-Jet Stream Technology (Agilent Technologies). A reverse-phase Ascentis Express
C18 (15 cm x 3 mm, 2.7 µm) column (Sigma-Aldrich Quimica, Madrid), preceded by a
phase A was 0.1% formic acid in Milli-Q water, and mobile phase B was acetonitrile
containing 0.1% formic acid at a 0.3 mL/min flow rate. The gradient started with 10% B
at 0 min, 30% B at 10 min, 40% B at 15 min, reaching 50% B at 20 min. The starting
gradient was then re-established in 2 min and maintained for 8 min to re-equilibrate the

[2] = Urinary excretion of phenolic metabolites after intake of the GCPE nutraceutical; settings: for Cumulative urinary excretion, Total 0–24 h / Urinary excretion: urine; for Cumulative urinary excretion, Total 0–24 h: mean ± SEM, n = 9
[3] = Plasma pharmacokinetics of phenolic metabolites after intake of the GCPE nutraceutical (LC-MS-QToF); settings: for AUC(0-t) / Tmax: 300 mg hydroxycinnamic acids; for AUC(0-t): AUC0–24h; for Tmax: Tmax (h) or Range; for Cmax: mean ± SEM, n = 9
[4] = human, oral, week 0, first peak where biphasic
[5] = human, oral, week 8, first peak where biphasic
[6] = human, oral, 300 mg, Cmax, week 0, GCPE nutraceutical with 300 mg hydroxycinnamic acids
[7] = human, oral, 300 mg, Cmax, week 8, GCPE nutraceutical with 300 mg hydroxycinnamic acids
[8] = week 8, listed as 3′-hydroxyphenylacetic acid
[9] = week 0, GCPE nutraceutical with 300 mg hydroxycinnamic acids
[10] = week 0, first peak where biphasic
[11] = week 8, GCPE nutraceutical with 300 mg hydroxycinnamic acids
[12] = week 8, first peak where biphasic

Compound	Amount of fecal metabolite excreted at 0 h ([1]; week 0, mean ± SEM, n = 9)	Amount of fecal metabolite excreted at 0 h ([1]; week 8)	Amount of fecal metabolite excreted at 24 h ([1]; week 0)	Amount of fecal metabolite excreted at 24 h ([1]; week 8)	Cumulative urinary excretion, Total 0–24 h ([2]; week 0)	Cumulative urinary excretion, Total 0–24 h ([2]; week 8)	Amount excreted in urine, 0- 3 h ([2]; week 0, interval 0–3 h)	Amount excreted in urine, 3-6 h ([2]; week 0, interval 3–6 h)	Amount excreted in urine, 6-9 h ([2]; week 0, interval 6–9 h)	Amount excreted in urine, 9-11 h ([2]; week 0, interval 9–11 h)	Amount excreted in urine, 11-24 h ([2]; week 0, interval 11–24 h)	Amount excreted in urine, 0- 3 h ([2]; week 8, interval 0–3 h)	Amount excreted in urine, 3-6 h ([2]; week 8, interval 3–6 h)	Amount excreted in urine, 6-9 h ([2]; week 8, interval 6–9 h)	Amount excreted in urine, 9-11 h ([2]; week 8, interval 9–11 h)	Amount excreted in urine, 11-24 h ([2]; week 8, interval 11–24 h)	AUC(0-t) ([3]; human, oral, week 0)	AUC(0-t) ([3]; human, oral, week 8)	Tmax [3, 4]	Tmax [3, 5]	further results
O=C(O)c1cccc(O)c1 [3-Hydroxybenzoic acid]	0.03 ± 0.02 µmol/g	0.020 ± 0.008 µmol/g	0.03 ± 0.01 µmol/g	0.020 ± 0.007 µmol/g	0.91 ± 0.07 µmol	1.0 ± 0.1 µmol	0.09 ± 0.02 µmol	0.05 ± 0.01 µmol	0.08 ± 0.02 µmol	0.064 ± 0.009 µmol	0.26 ± 0.02 µmol	0.1 ± 0.01 µmol	0.06 ± 0.01 µmol	0.11 ± 0.02 µmol	0.07 ± 0.02 µmol	0.19 ± 0.04 µmol	700 ± 300 nM·h	800 ± 300 nM·h	8 ± 1 h	4 ± 1 h	Cmax [3, 6]: 0.08 ± 0.02 µM; Cmax [3, 7]: 0.1 ± 0.03 µM
O=C(O)Cc1cccc(O)c1 [3′-Hydroxyphenylacetic acid]	0.31 ± 0.09 µmol/g	0.18 ± 0.08 µmol/g	0.21 ± 0.08 µmol/g	0.11 ± 0.04 µmol/g	12 ± 3 µmol	9 ± 2 µmol	1.6 ± 0.5 µmol	1 ± 0.2 µmol	0.8 ± 0.2 µmol	0.53 ± 0.09 µmol	2.5 ± 0.7 µmol	1 ± 0.2 µmol	0.7 ± 0.2 µmol	0.7 ± 0.1 µmol	0.6 ± 0.2 µmol	1.8 ± 0.6 µmol	–	–	–	–	Amount of fecal metabolite excreted at 0 h ([1]; week 0, mean ± SEM, n = 9, listed as 3′-hydroxyphenylacetic acid): 0.31 µmol/g; Amount of fecal metabolite excreted at 0 h [1, 8]: 0.18 µmol/g; Amount of fecal metabolite excreted at 24 h ([1]; week 0, listed as 3′-hydroxyphenylacetic acid): 0.21 µmol/g; Amount of fecal metabolite excreted at 24 h [1, 8]: 0.11 µmol/g; Amount excreted in urine, TOTAL ([2]; week 0, Table S5 total): 12 ± 3 µmol; AUC0–24h ([3]; week 0): 2.6 ± 0.9 µM/min; Cmax [3, 9]: 0.2 ± 0.07 µM; Tmax (h) or Range [3, 10]: 8 ± 2 h; AUC0–24h ([3]; week 8): 1.6 ± 0.6 µM/min; Cmax [3, 11]: 0.15 ± 0.05 µM; Tmax (h) or Range [3, 12]: 5 ± 1 h
COc1cc(/C=C/C(=O)OC2[C@H](O)CC(O)(C(=O)O)C[C@H]2O)ccc1O (stereo partly shown) [4-Feruloylquinic acid]	–	0.001 ± 0.001 µmol/g	–	0.0004 ± 0.0004 µmol/g	0.4 ± 0.2 µmol	0.4 ± 0.1 µmol	0.2 ± 0.1 µmol	0.15 ± 0.05 µmol	0.02 ± 0.01 µmol	0.003 ± 0.002 µmol	–	0.21 ± 0.08 µmol	0.13 ± 0.03 µmol	0.03 ± 0.01 µmol	–	0.02 ± 0.02 µmol	–	–	–	–	AUC0–24h ([3]; week 0): 0.06 ± 0.01 µM/min; Cmax [3, 9]: 0.029 ± 0.004 µM; Tmax (h) or Range [3, 10]: 0.9 ± 0.1 h; AUC0–24h ([3]; week 8): 0.07 ± 0.01 µM/min; Cmax [3, 11]: 0.031 ± 0.004 µM; Tmax (h) or Range [3, 12]: 0.9 ± 0.1 h
COc1cc(C(=O)O)ccc1O [4-Hydroxy-3-methoxybenzoic acid]	0.06 ± 0.03 µmol/g	0.006 ± 0.006 µmol/g	–	–	–	–	–	–	–	–	–	–	–	–	–	–	9000 ± 2000 nM·h	14000 ± 4000 nM·h	7 ± 3 h	7 ± 2 h	Cmax [3, 6]: 1.1 ± 0.2 µM; Cmax [3, 7]: 1.6 ± 0.4 µM
O=C(O)c1ccc(O)cc1 [4-Hydroxybenzoic acid]	0.004 ± 0.004 µmol/g	0.006 ± 0.004 µmol/g	0.0006 ± 0.0004 µmol/g	0.01 ± 0.01 µmol/g	1.3 ± 0.2 µmol	1.01 ± 0.09 µmol	0.3 ± 0.2 µmol	0.11 ± 0.02 µmol	0.1 ± 0.02 µmol	0.09 ± 0.01 µmol	0.29 ± 0.04 µmol	0.14 ± 0.02 µmol	0.1 ± 0.01 µmol	0.09 ± 0.02 µmol	0.08 ± 0.02 µmol	0.26 ± 0.03 µmol	900 ± 200 nM·h	500 ± 200 nM·h	7 ± 2 h	5 ± 3 h	Urinary excretion ([2]; week 0): 1.3 µmol/24 h; Urinary excretion ([2]; week 8): 1.01 µmol/24 h; Cmax [3, 6]: 0.09 ± 0.01 µM; Cmax [3, 7]: 0.08 ± 0.01 µM
COc1cc(CC(=O)O)ccc1O [4′-Hydroxy-3′-methoxyphenylacetic acid]	0.007 ± 0.005 µmol/g	0.0006 ± 0.0006 µmol/g	0.02 ± 0.01 µmol/g	0.003 ± 0.003 µmol/g	13.2 ± 0.9 µmol	12 ± 1 µmol	1.3 ± 0.2 µmol	0.9 ± 0.2 µmol	0.9 ± 0.2 µmol	0.7 ± 0.1 µmol	3.6 ± 0.3 µmol	1.5 ± 0.2 µmol	0.8 ± 0.1 µmol	1 ± 0.2 µmol	0.68 ± 0.15 µmol	2.9 ± 0.7 µmol	–	–	–	–	AUC0–24h ([3]; week 0): 1.4 ± 0.9 µM/min; Cmax [3, 9]: 0.14 ± 0.06 µM; Tmax (h) or Range [3, 10]: 7 ± 4 h; AUC0–24h ([3]; week 8): 1.5 ± 0.8 µM/min; Cmax [3, 11]: 0.12 ± 0.05 µM; Tmax (h) or Range [3, 12]: 4 ± 3 h
O=C(O)CCc1ccc(O)cc1 [DHCoA, 3-(4′-Hydroxyphenyl)propanoic acid]	0.005 ± 0.003 µmol/g	0.006 ± 0.006 µmol/g	0.005 ± 0.005 µmol/g	0.014 ± 0.005 µmol/g	4 ± 1 µmol	6 ± 2 µmol	0.16 ± 0.04 µmol	0.09 ± 0.02 µmol	0.5 ± 0.2 µmol	0.6 ± 0.2 µmol	1.4 ± 0.4 µmol	0.4 ± 0.2 µmol	0.3 ± 0.1 µmol	0.9 ± 0.3 µmol	0.8 ± 0.3 µmol	1 ± 0.2 µmol	–	–	–	–	Urinary excretion ([2]; week 0): 4 µmol/24 h; Urinary excretion ([2]; week 8): 6 µmol/24 h
